{
  "source": "patent US20120190752A1",
  "about": "“EXO-S-MECAMYLAMINE METHOD, USE, AND COMPOUND FOR TREATMENT” (Targacept Inc., priority 2009, published 2012)",
  "tested_on": "subjects with major depressive disorder (MDD) who were inadequate responders to citalopram",
  "assay": "Individual HAMD-17 factor (subscale) scores, exploratory analysis",
  "assay_type": "in vivo, human",
  "method": "In more detail, a multi-center double-blind, randomized, placebo-controlled, parallel group, flexible dose titration study of TC-5214 as adjunctive therapy in subjects with major depressive disorder (MDD) who were inadequate responders to citalopram was conducted in centers in the US and India. The study consisted of a screening period, baseline/washout period, open-label phase, double-blind phase, and a follow-up visit. Subject participation in the study could continue for up to 16 weeks of treatment. Following a washout period of up to 28 days for other antidepressants, subjects with MDD and a MADRS total score >/=28 and a Clinical Global Impression-Severity (CGI-S) score >/=4 were enrolled on Day 1 into an open-label citalopram-only phase of the study. This phase lasted 8 weeks, with citalopram (CIT) dose increased from a once-daily dose of 20 mg (Day 1 through Week 4) to 40 mg (Week 4 through Week 8). A total of 579 subjects entered the open-label citalopram phase. At Week 8, subjects who tolerated 40 mg CIT, but whose MADRS score was reduced <50% from baseline and no lower than 17, and CGI-S≧4, were considered inadequate responders. These subjects (n=270) were randomized in a double-blind fashion to receive either placebo or TC-5214-23 as add-on therapy to continued CIT. The double-blind phase of the study also lasted 8 weeks (Week 8 to Week 16). Study drug, TC-5214-23 or placebo, was started at 2 mg daily (1 mg twice per day [BID] dosing), added on to continuing CIT (40 mg PO qd). After 2 weeks of treatment, the dose of TC-5214 could be increased to 4 mg (2 mg BID) or continued unchanged, with up-titration based upon good tolerability and inadequate therapeutic response. After a further 2 weeks, the dose of TC-5214 could be increased again to 8 mg (4 mg BID) if judged appropriate by the investigator, based upon good tolerability and inadequate therapeutic response. At any time during the double-blind phase of the study, placebo or TC-5214-23 could be reduced to the previous dose level following the emergence of unacceptable adverse events (AEs). […] At this follow-up, any signs or symptoms of relapse were evaluated. If a subject was prematurely discontinued from the study between Week 8 and Week 16 for any reason, the investigator was to make every effort to perform all evaluations as per protocol, assuming the subject had reached the end of the double-blind add-on treatment phase. These evaluations were to be made as soon as possible and within 2 weeks of discontinuation. […] There was no meaningful difference in results as a function of age, gender, site, or smoking status. An exploratory analysis assessed the differences in the treatment groups from Week 8 (double-blind baseline) to Week 16 for each individual HAMD-17 factor score.",
  "key": {"[1]": {"conditions": "ITT population, Week 8 (double-blind baseline) to Week 16"}},
  "data": [
    {"molecule": "CNC1(C)C2CCC(C2)C1(C)C", "note": "(stereo in doubt) [TC-5214, (S)—N,2,3,3-tetramethylnorbornan-2-amine]", "values": [
      {"measurement": "HAMD-17 item 1 Depression-Mood: Adjusted Mean Change TC-5214—Placebo (SD)", "setting": "[1]", "result": "−0.69 (0.86)"},
      {"measurement": "HAMD-17 item 1 Depression-Mood: Effect Size", "setting": "[1]", "result": 0.80},
      {"measurement": "HAMD-17 item 2 Feelings of Guilt: Adjusted Mean Change TC-5214—Placebo (SD)", "setting": "[1]", "result": "−0.43 (0.72)"},
      {"measurement": "HAMD-17 item 2 Feelings of Guilt: Effect Size", "setting": "[1]", "result": 0.60},
      {"measurement": "HAMD-17 item 3 Suicide: Adjusted Mean Change TC-5214—Placebo (SD)", "setting": "[1]", "result": "−0.07 (0.40)"},
      {"measurement": "HAMD-17 item 3 Suicide: Effect Size", "setting": "[1]", "result": 0.18},
      {"measurement": "HAMD-17 item 4 Early Insomnia: Adjusted Mean Change TC-5214—Placebo (SD)", "setting": "[1]", "result": "−0.41 (0.64)"},
      {"measurement": "HAMD-17 item 4 Early Insomnia: Effect Size", "setting": "[1]", "result": 0.64},
      {"measurement": "HAMD-17 item 5 Middle Insomnia: Adjusted Mean Change TC-5214—Placebo (SD)", "setting": "[1]", "result": "−0.42 (0.64)"},
      {"measurement": "HAMD-17 item 5 Middle Insomnia: Effect Size", "setting": "[1]", "result": 0.66},
      {"measurement": "HAMD-17 item 6 Late Insomnia: Adjusted Mean Change TC-5214—Placebo (SD)", "setting": "[1]", "result": "−0.35 (0.63)"},
      {"measurement": "HAMD-17 item 6 Late Insomnia: Effect Size", "setting": "[1]", "result": 0.56},
      {"measurement": "HAMD-17 item 7 Work and Activities: Adjusted Mean Change TC-5214—Placebo (SD)", "setting": "[1]", "result": "−0.49 (0.86)"},
      {"measurement": "HAMD-17 item 7 Work and Activities: Effect Size", "setting": "[1]", "result": 0.57},
      {"measurement": "HAMD-17 item 8 Retardation: Adjusted Mean Change TC-5214—Placebo (SD)", "setting": "[1]", "result": "−0.31 (0.59)"},
      {"measurement": "HAMD-17 item 8 Retardation: Effect Size", "setting": "[1]", "result": 0.53},
      {"measurement": "HAMD-17 item 9 Agitation: Adjusted Mean Change TC-5214—Placebo (SD)", "setting": "[1]", "result": "−0.40 (0.68)"},
      {"measurement": "HAMD-17 item 9 Agitation: Effect Size", "setting": "[1]", "result": 0.59},
      {"measurement": "HAMD-17 item 10 Psychic Anxiety: Adjusted Mean Change TC-5214—Placebo (SD)", "setting": "[1]", "result": "−0.59 (0.77)"},
      {"measurement": "HAMD-17 item 10 Psychic Anxiety: Effect Size", "setting": "[1]", "result": 0.77},
      {"measurement": "HAMD-17 item 11 Somatic Symptoms: Anxiety: Adjusted Mean Change TC-5214—Placebo (SD)", "setting": "[1]", "result": "−0.41 (0.70)"},
      {"measurement": "HAMD-17 item 11 Somatic Symptoms: Anxiety: Effect Size", "setting": "[1]", "result": 0.59},
      {"measurement": "HAMD-17 item 12 Somatic Symptoms: GI: Adjusted Mean Change TC-5214—Placebo (SD)", "setting": "[1]", "result": "−0.23 (0.52)"},
      {"measurement": "HAMD-17 item 12 Somatic Symptoms: GI: Effect Size", "setting": "[1]", "result": 0.44},
      {"measurement": "HAMD-17 item 13 Somatic Symptoms: General: Adjusted Mean Change TC-5214—Placebo (SD)", "setting": "[1]", "result": "−0.24 (0.66)"},
      {"measurement": "HAMD-17 item 13 Somatic Symptoms: General: Effect Size", "setting": "[1]", "result": 0.36},
      {"measurement": "HAMD-17 item 14 Somatic Symptoms: Genital: Adjusted Mean Change TC-5214—Placebo (SD)", "setting": "[1]", "result": "−0.34 (0.62)"},
      {"measurement": "HAMD-17 item 14 Somatic Symptoms: Genital: Effect Size", "setting": "[1]", "result": 0.55},
      {"measurement": "HAMD-17 item 15 Hypochondriasis: Adjusted Mean Change TC-5214—Placebo (SD)", "setting": "[1]", "result": "−0.48 (0.74)"},
      {"measurement": "HAMD-17 item 15 Hypochondriasis: Effect Size", "setting": "[1]", "result": 0.65},
      {"measurement": "HAMD-17 item 16 Weight Loss: Adjusted Mean Change TC-5214—Placebo (SD)", "setting": "[1]", "result": "−0.20 (0.53)"},
      {"measurement": "HAMD-17 item 16 Weight Loss: Effect Size", "setting": "[1]", "result": 0.38},
      {"measurement": "HAMD-17 item 17 Insight: Adjusted Mean Change TC-5214—Placebo (SD)", "setting": "[1]", "result": "0.03 (0.31)"},
      {"measurement": "HAMD-17 item 17 Insight: Effect Size", "setting": "[1]", "result": 0.10},
      {"measurement": "each HAMD-17 subscale score change from baseline compared with placebo", "setting": "ITT, with the exception of the Suicide and Insight subscales, result in words", "result": "statistically significant decreases (improvements)"}
    ]}
  ]
}
